# According to patent publication US10072034B2, “Kinase inhibitors” (Respivert Limited, priority 2016, dated 2018):
# pIC50: −log10 of the molar value.
# Tested on: TNFα release in PBMCs
# Test: LPS-induced TNFα release in PBMC cells (assay (b))
# Format: cell-based
# Conditions: Homo sapiens, LPS-stimulated PBMCs
# Procedure: Peripheral blood mononuclear cells (PBMCs) from healthy subjects are separated from whole blood using a density gradient (Lymphoprep, Axis-Shield Healthcare). The PBMCs are seeded in 96 well plates and treated with compounds at the desired concentration for 2 hours before addition of 1 ng/mL LPS (Escherichia Coli 0111:B4 from Sigma Aldrich) for 24 hours under normal tissue culture conditions (37° C., 5% CO2). The supernatant is harvested for determination of IL-8 and TNFα concentrations by sandwich ELISA (Duo-set, R&D systems) and read on the fluorescence microplate reader (Varioskan® Flash, ThermoFisher Scientific). The concentration at 50% inhibition (IC50) of IL-8 and TNFα production is calculated from the dose response curve.
compound,measurement,value
COc1cc(Nc2cc(Oc3ccc(NC(=O)Nc4cc(C(C)(C)C)cc(NS(C)(=O)=O)c4OC)c4ccccc34)ccn2)cc(OCCOCCOCC(=O)O)c1 [Example 3],pIC50,7.97
